What was measured:
Format in all cases: cell-based
[1] = tested on: Acinetobacter baumannii CIP 70.34; test: Antibacterial activity of silicone films, ISO 22196; conditions: incubation 24 h at 37° C., detection limit log10(N)=1.4
Experimental: (§1) The antibacterial activity of the silicone compositions of the invention was tested on 6 lines of bacteria, according to the procedure for the ISO 22196 standard (second edition, 2011).
(§2) The lines of tested bacteria are: Klebsiella pneumoniae DSM 16609, Staphylococcus aureus ATCC 25923, Enterococcus faecalis ATCC 29212, Escherichia coli ATCC 8739, Acinetobacter baumannii CIP 70.34 and Enterobacter cloacae DSM 30054.
(§3) Silicone films were prepared according to Examples 2 and 3, comprising 0%, 2% or 5% of antimicrobial agent PHMG-DBS, OMIM-BF4 or DMIM-BF4 (7 types of silicone films were therefore prepared).
(§4) Square pieces of silicone films with dimensions 25 mm×25 mm were cut out, as well as squares of polypropylene of dimension 20 mm×20 mm. The latter were passed in the autoclave at 115° C. for 20 minutes.
(§5) The bacteria were cultivated overnight at 37° C. in an agar culture medium. Suspensions of bacteria were then prepared in a nutrient broth culture medium with a bacterial concentration of 6.10^5 CFU/ml.
(§6) Each silicone square (not sterilized) was placed on a lid of a Petri dish with a diameter of 55 mm, which itself was placed in a Petri dish with a diameter of 94 mm. 100 μl of bacterial suspension were deposited on each silicone square and spread out by means of a polypropylene square. 10 ml of sterile water were added in the bottom of the Petri dish with a diameter of 94 mm in order to ensure high relative humidity during incubation at 37° C. for 24 hours. For each silicone film type, three specimens were made.
(§7) After incubation, each silicone film was placed in a new Petri dish and washed with 10 ml of […] (SCDLP, according to the standard procedure of the ISO standard) for recovering the bacteria. After 5 washes, the SCDLP suspension was diluted down to 10^−6, and 1 ml of obtained solution was placed on a gelose plate PCA (duplicated). Each plate was incubated at 37° C. for 24 hours. The number of colonies on each Petri dish was then counted.
(§8) The viability of the bacteria depending on the obtained results was calculated by means of the following formula: […]
(§9) wherein: • N refers to the number of viable bacteria observed per cm^2 of each tested sample, • C refers to the average count of colonies on each gelose plate PCA, and • D refers to the dilution factor used for the counting.
(§10) The results of the viability measurements of the bacteria, expressed in log10(N), are gathered in Table 1, the detection limit having been set to a number of recovered bacteria equal to 10 (i.e. log10(N)=1.4).

[2] = tested on: Enterobacter cloacae DSM 30054; test: as above; conditions: incubation 24 h at 37° C., detection limit log10(N)=1.4
Experimental: as §1, §2, §3, §4, §5, §6, §7, §8, §9, §10

[3] = tested on: Enterococcus faecalis ATCC 29212; test: as above; conditions: incubation 24 h at 37° C., detection limit log10(N)=1.4
Experimental: as §1, §2, §3, §4, §5, §6, §7, §8, §9, §10

[4] = tested on: Escherichia coli ATCC 8739; test: as above; conditions: incubation 24 h at 37° C., detection limit log10(N)=1.4
Experimental: as §1, §2, §3, §4, §5, §6, §7, §8, §9, §10

[5] = tested on: Klebsiella pneumoniae DSM 16609; test: as above; conditions: incubation 24 h at 37° C., detection limit log10(N)=1.4
Experimental: as §1, §2, §3, §4, §5, §6, §7, §8, §9, §10

[6] = tested on: Staphylococcus aureus ATCC 25923; test: as above; conditions: incubation 24 h at 37° C., detection limit log10(N)=1.4
Experimental: as §1, §2, §3, §4, §5, §6, §7, §8, §9, §10

[7] = tested on: Candida albicans IHEM 14796; test: Tests on yeast according to ISO 22196; conditions: incubation 24 h
Experimental: The antibacterial activity of the silicone compositions of the invention was tested on the yeast line Candida albicans IHEM 14796, according to the procedure of the ISO 22196 standard (second edition, 2011).
(§11) The silicone films prepared in Example 5A were used.
The procedure followed is identical with that of Example 5A.

[8] = tested on: Penicillium chrysogenum HEM 20859; test: Tests on a fungus according to ISO 16869 (modified); design: key: mark 0 is ascribed when no growth is observed; mark 1 is ascribed when beginning of growth is observed; mark 2 is ascribed when obvious growth is observed; conditions: silicone film with 5% antimicrobial agent, 25° C., naked eye mark
Experimental: The antifungal activity of the silicone compositions of the invention was tested on the fungus line Penicillium chrysogenum HEM 20859, according to the procedure of the ISO 16869 standard (second edition, 2008).
as §11
Thus, each silicone film sample was placed in a Petri dish between a lower layer of nutrient salt agar (20 ml) and an upper layer of Peptone Dextrose agar in which fungus spores were dispersed. The remainder of the procedure of the aforementioned standard was followed.
The culture media were incubated at 25° C. for at least 48 h, and for up to 7 days.
The results are evaluated with the naked eye: • mark 0 is ascribed when no growth is observed, • mark 1 is ascribed when beginning of growth is observed, and • mark 2 is ascribed when obvious growth is observed.

[9] = silicone film with 2% antimicrobial agent
[10] = silicone film with 5% antimicrobial agent

Compound	Viability of bacteria (log10(N)) Acinetobacter baumannii [1, 9]	Viability of bacteria (log10(N)) Acinetobacter baumannii [1, 10]	Viability of bacteria (log10(N)) Enterobacter cloacae [2, 9]	Viability of bacteria (log10(N)) Enterobacter cloacae [2, 10]	Viability of bacteria (log10(N)) Enterococcus faecalis [3, 9]	Viability of bacteria (log10(N)) Enterococcus faecalis [3, 10]	Viability of bacteria (log10(N)) Escherichia coli [4, 9]	Viability of bacteria (log10(N)) Escherichia coli [4, 10]	Viability of bacteria (log10(N)) Klebsiella pneumoniae [5, 9]	Viability of bacteria (log10(N)) Klebsiella pneumoniae [5, 10]	Viability of bacteria (log10(N)) Staphylococcus aureus [6, 9]	Viability of bacteria (log10(N)) Staphylococcus aureus [6, 10]	Viability of yeasts (log10(N)) Candida albicans [7, 9]	Viability of yeasts (log10(N)) Candida albicans [7, 10]	Observation of the growth of fungi Penicillium chrysogenum, Incubation for 48 h ([8]; 48 h)	Observation of the growth of fungi Penicillium chrysogenum, Incubation for 7 days ([8]; 7 days)
CCCCCCCCCCCCn1cc[n+](C)c1.F[B-](F)(F)F [DMIM-BF4, 1-dodecyl-3-methylimidazolium tetrafluoroborate]	1.6 log10(N)	1.4 log10(N)	1.4 log10(N)	1.4 log10(N)	1.4 log10(N)	1.4 log10(N)	1.4 log10(N)	1.4 log10(N)	1.4 log10(N)	1.4 log10(N)	1.4 log10(N)	1.4 log10(N)	1.4 log10(N)	1.4 log10(N)	0	0
CCCCCCCCn1cc[n+](C)c1.F[B-](F)(F)F [OMIM-BF4, 1-octyl-3-methylimidazolium tetrafluoroborate]	5.8 log10(N)	1.4 log10(N)	3.6 log10(N)	1.4 log10(N)	3.6 log10(N)	1.4 log10(N)	1.4 log10(N)	1.4 log10(N)	3.3 log10(N)	4.6 log10(N)	1.6 log10(N)	1.4 log10(N)	6.1 log10(N)	3.0 log10(N)	–	–
